Laboratory results published in article PMC9046198, “Peptidoglycan biosynthesis is driven by lipid transfer along enzyme-substrate affinity gradients” (Nature Communications, 2022).

Assays:
[1] = target: T1, MraY (Aquifex aeolicus, UniProt O66465); test: native MS, endogenous adducts and exogenous C55-P titration; type: binding
T1 construct: wild-type MraY, MBP tag removed with HRV3C protease
T1 sequence (O66465 1-359): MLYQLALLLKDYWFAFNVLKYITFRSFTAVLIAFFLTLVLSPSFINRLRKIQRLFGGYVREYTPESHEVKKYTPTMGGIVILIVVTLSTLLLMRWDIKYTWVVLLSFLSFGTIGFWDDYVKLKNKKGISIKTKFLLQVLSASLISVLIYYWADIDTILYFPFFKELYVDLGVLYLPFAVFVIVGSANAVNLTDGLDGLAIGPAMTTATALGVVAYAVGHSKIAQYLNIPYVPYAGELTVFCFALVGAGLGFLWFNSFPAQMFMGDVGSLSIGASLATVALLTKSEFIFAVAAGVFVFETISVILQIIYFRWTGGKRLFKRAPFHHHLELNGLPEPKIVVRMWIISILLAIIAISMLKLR

[2] = target: T2, MurG (Escherichia coli, UniProt P17443); test: turnover by purified MurG (with MraY-bound lipid I) to lipid II monitored by native MS; type: biochemical
T2 construct: MurG-GFP-His6 fusion, tag removed with TEV protease
T2 sequence (P17443 2-355): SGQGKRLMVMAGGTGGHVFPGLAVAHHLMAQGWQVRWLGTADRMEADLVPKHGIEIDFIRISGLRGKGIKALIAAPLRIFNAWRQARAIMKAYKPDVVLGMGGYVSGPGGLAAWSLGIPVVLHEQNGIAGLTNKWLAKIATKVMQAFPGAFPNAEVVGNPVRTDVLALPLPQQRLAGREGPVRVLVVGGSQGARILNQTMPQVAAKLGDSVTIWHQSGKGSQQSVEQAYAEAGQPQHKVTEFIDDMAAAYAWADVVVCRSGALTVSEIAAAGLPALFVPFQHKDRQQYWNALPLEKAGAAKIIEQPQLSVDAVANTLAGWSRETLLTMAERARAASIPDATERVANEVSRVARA

[3] = target: T2, MurG; test: native MS titration ([…] MurG, […] lipid I), apparent Kd; type: binding
[4] = target: T2, MurG; test: native MS titration, apparent Kd; type: binding
[5] = target: T1, MraY; test: native MS binding to MraY dimer; also inhibits lipid I synthesis by purified MraY ([…])

CC(C)=CCC/C(C)=C/CC/C(C)=C/CC/C(C)=C\CC/C(C)=C\CC/C(C)=C\CC/C(C)=C\CC/C(C)=C\CC/C(C)=C\CC/C(C)=C\CC/C(C)=C\COP(=O)(O)O [C55-P, undecaprenyl phosphate]
native MS, endogenous adducts and exogenous C55-P titration [1]: The binding of up to four C55-P molecules per MraY dimer could be clearly resolved

CC(=O)N[C@H]1[C@@H](OP(=O)(O)OP(=O)(O)OC[C@H]2O[C@@H](n3ccc(=O)[nH]c3=O)[C@H](O)[C@@H]2O)O[C@H](CO)[C@@H](O)[C@@H]1O [UDP-GlcNAc]
turnover by purified MurG (with MraY-bound lipid I) to lipid II monitored by nat [2]: we incubated MraY with MurG and UDP-GlcNAc and observed the formation of lipid II

CC(=O)N[C@H]1[C@@H](OP(=O)(O)OP(=O)(O)OC/C=C(/C)CC/C=C(/C)CC/C=C(/C)CC/C=C(/C)CC/C=C(/C)CC/C=C(/C)CC/C=C(/C)CC/C=C(/C)CC/C=C(\C)CC/C=C(\C)CCC=C(C)C)O[C@H](CO)[C@@H](O)[C@@H]1O[C@H](C)C(=O)N[C@@H](C)C(=O)N[C@H](CCC(=O)N[C@@H](CCCCN)C(=O)N[C@H](C)C(=O)N[C@H](C)C(=O)O)C(=O)O [lipid I]
Kd [3]: 1900 ± 400 nM

lipid II
Kd [4]: 2600 ± 900 nM

tunicamycin
native MS binding to MraY dimer; also inhibits lipid I synthesis by purified Mra [5]: We also captured the binding of a nucleoside antibiotic tunicamycin to the MraY dimer.
